melting point: 166 to 167 °C
SMILES: Cn1cc(C(=O)Nc2ccccc2-c2ccc(Br)cc2)c(C(F)F)c1 [Compound 1.2, 1-methyl-4-difluoromethyl-1H-pyrrole-3-carboxylic acid (4′-bromobiphenyl-2-yl) amide]
